Measurements: ChEMBL document CHEMBL1201862, “PubChem BioAssay data set” (2004)
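Exposure lasted 48 hours, with cells grown in 96-well plates and compounds tested at five concentrations. Abbreviation: GI50, concentration required for 50% inhibition of growth.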 The source made the active and inactive calls. Rule as the data show it: active = GI50 up to about 1.1 µM and inactive = higher.

Assays:
Assay in all cases: NCI anticancer screen, dose series, 48 h
[1] = test system: HCT-116
[2] = test system: OVCAR-8
[3] = test system: NCI-H226
[4] = test system: PC-3
[5] = test system: MDA-N
[6] = test system: OVCAR-5
[7] = test system: CAKI-1
[8] = test system: HCC 2998
[9] = test system: NCI/ADR-RES
[10] = test system: SW-620
[11] = test system: UACC-62
[12] = test system: SK-MEL-2
[13] = test system: COLO 205
[14] = test system: A498
[15] = test system: LOX IMVI
[16] = test system: HOP-62
[17] = test system: SNB-75
[18] = test system: Malme-3M

Measured: GI50

COc1ncnc2c1cnn2Cc1cn(COCC(O)CO)nn1 (centres undefined)
inactive: [1] > 100 µM | [2] > 100 µM | [3] > 100 µM | [4] > 100 µM | [5] > 100 µM | [6] > 100 µM | [7] > 100 µM | [8] > 100 µM | [9] > 100 µM | [10] > 100 µM | [11] > 100 µM | [12] > 100 µM | [13] > 100 µM | [14] > 100 µM | [15] > 100 µM | [16] > 100 µM

COc1c(N2CCCCC2)c2c(=O)c3ccccc3oc2c2c3ccccc3n(C)c12
inactive: [1] 53.1 µM | [17] > 100 µM | [2] > 100 µM | [3] > 100 µM | [4] > 100 µM | [5] 38.1 µM | [6] > 100 µM | [18] > 100 µM | [7] > 100 µM | [8] > 100 µM | [9] > 100 µM | [10] > 100 µM | [11] > 100 µM | [12] > 100 µM | [13] 26.2 µM | [15] > 100 µM | [16] > 100 µM

CC(C)(C)/C(=N\Nc1nc2ccccc2[nH]1)c1ccccn1
inactive: [1] 22.8 µM | [2] > 100 µM | [3] > 100 µM | [4] 81.5 µM | [5] > 100 µM | [18] 9.18 µM | [7] 48.2 µM | [9] 65.3 µM | [10] 65.2 µM | [11] > 100 µM | [12] > 100 µM | [13] 33 µM | [14] > 100 µM | [15] > 100 µM | [16] > 100 µM

CSc1ccc2c(c1)N(CCCN(C)C)c1ccccc1S2
inactive: [1] 12.7 µM | [17] 6.97 µM | [2] 17.2 µM | [3] 19.8 µM | [4] 11.1 µM | [5] 10.7 µM | [6] 15.3 µM | [18] 9.16 µM | [7] 8.67 µM | [9] 12.1 µM | [10] 15.2 µM | [11] 10.4 µM | [12] 15.6 µM | [13] 12.7 µM | [14] 11.2 µM | [15] 11.6 µM | [16] 14 µM

CCC1c2[nH]c3ccccc3c2C[C@H]2C(=O)NC(Cc3ccccc3)C(=O)N12 (some centres undefined)
inactive: [1] 24.7 µM | [2] 34.5 µM | [3] 28.4 µM | [4] 20.8 µM | [5] 25.8 µM | [6] 25.2 µM | [18] 19.7 µM | [7] 35.4 µM | [8] 26 µM | [9] 29.8 µM | [10] 35.6 µM | [11] 17.2 µM | [12] 20.9 µM | [13] 20.6 µM | [14] 38.5 µM | [15] 22.1 µM | [16] 34.8 µM

N#C/C(=C\c1cn(Cc2ccccc2)c2ccccc12)c1nn(-c2ccccc2)c(N)c1C#N
inactive: [1] 16.4 µM | [17] 4.07 µM | [2] 10.1 µM | [4] 8.22 µM | [5] 23.2 µM | [6] 18.8 µM | [18] 21.4 µM | [7] 17.4 µM | [9] 17.4 µM | [10] 14.8 µM | [11] 10.8 µM | [12] 4.65 µM | [13] 20.1 µM | [14] 16.7 µM | [15] 32.2 µM

O=C(OCCN=C1c2ccccc2CCc2ccccc21)c1cc([N+](=O)[O-])cc([N+](=O)[O-])c1
inactive: [1] > 31.6 µM | [17] > 100 µM | [2] > 31.6 µM | [3] > 31.6 µM | [4] > 31.6 µM | [5] > 31.6 µM | [6] > 31.6 µM | [18] > 31.6 µM | [7] 29.3 µM | [9] > 31.6 µM | [10] > 31.6 µM | [11] > 31.6 µM | [12] > 31.6 µM | [13] > 31.6 µM | [14] > 10 µM | [15] > 31.6 µM | [16] > 31.6 µM

COc1ccc2c(O)c(S(=O)(=O)c3ccc(C)cc3)c(=O)oc2c1OC
inactive: [1] > 100 µM | [17] > 100 µM | [2] > 100 µM | [3] > 100 µM | [4] > 100 µM | [5] > 100 µM | [6] > 100 µM | [18] > 100 µM | [7] > 100 µM | [8] > 100 µM | [9] > 100 µM | [10] > 100 µM | [11] > 100 µM | [12] > 100 µM | [13] > 100 µM
